Here are results for one compound from patent US20240317755A1, “HETEROCYCLIC COMPOUND, AND INTERMEDIATE THEREOF, PREPARATION METHOD THEREFOR AND USE THEREOF” (WUHAN LL SCIENCE AND TECHNOLOGY DEVELOPMENT CO., LTD., priority 2021, published 2024).

As usually defined, the AUC(0-inf) is total exposure, with the tail of the curve extrapolated. As usually defined, the AUC(0-t) is exposure summed from dosing to a finite time, without extrapolation to infinity. One may read the Cmax as the maximum level reached in the sampled fluid or tissue. Usually MRT last stands for the average time that molecules of a dose stay in the body. As a reminder, the Tmax is the time from dosing to the highest level.

The structures appear in SMILES notation.

The nature of series [1]: PK study of male SD rats after single intragastric administration (5% solutol). The format is in vivo. As to conditions: rat, plasma, single PO compound 1-6 100 mg/kg; for AUC(0-inf) / AUC(0-t) / Cmax / MRT last / half-life: male, SD, po, 100 mg/kg. As for the experimental part: Effect Example 2: PK Study of Male SD Rats after Single Intragastric Administration of Compound (Using 5% Solutol as a Solvent)
To explore the time-plasma concentration curves of the compound in the plasma of male rats after single intragastric administration of compound 1 (125 mg/kg) and compound 1-6 (100 mg/kg) of the present disclosure and to obtain PK parameters (Cmax, Tmax, AUClast, AUCinf, T1/2, MRT, etc.) of the rats after single administration of compound 1 and compound 1-6 of the present disclosure.
Rats: SD rats, SPF grade, 3 males, weight range of 180 to 200 g (source: Beijing Vital River Laboratory Animal Technology Co., Ltd., certificate number: 110011201109106028); • feeding conditions: ordinary animal house feeding, free access to food and water, 3 animals/cage rearing, 12/12 hours light/dark cycle adjustment (7:00 am/7:00 pm), temperature of 23±1° C.
Dispensing: After accurately weighing the compounds in the PO group, 5% solutol of the required volume was added thereto first, vortexed and mixed evenly for 2 min, sonicated for 30 min, stirred for 2 hours until no visible particles were visible to the naked eye, and the drug was administered while stirring, and the middle layer of the drug solution was taken for drug administration.
Rats: SD rats, SPF grade, 3 males, weight range of 220 to 300 g (source: SPF (Beijing) Biotechnology Co., Ltd., certificate number: 110324200103216838); • feeding conditions: ordinary animal house feeding, free access to food and water, 3 animals/cage rearing, 12/12 hours light/dark cycle adjustment (7:00 am/7:00 pm), temperature of 23±1° C.
Dispensing: After accurately weighing compound 1-6 in the PO group, 5% solutol of the required volume was added first, vortexed and mixed evenly for 2 min, sonicated for 30 min, stirred for 3 hours until no visible particles were visible to the naked eye; • the drug solution was prepared and used immediately, and a sample of the drug solution must be retained for analysis, and two samples of 100 μL each of the upper, middle, and lower suspensions were taken and sent for analysis and testing on the same day.
The rats were randomly divided into 3 groups according to body weight, and the specific grouping and administration are as follows:
• 1. The animals in the PO group were fasted overnight with free access to water before administration, and the food was returned 4 hours after administration; • 2. time points for blood sampling: the time points for blood sampling in the PO group were 0.167, 0.5, 1, 2, 3, 4, 6, 9, 12, and 24 hours.
• 1. The animals in the PG group were fasted overnight with free access to water before administration, and the food was returned 4 hours after administration; • 2. time points for blood sampling: the time points for blood sampling in the PG group were 0.167, 0.5, 1, 2, 3, 4, 6, 9, 12, and 24 hours.
After administration to rats, blood was collected from the orbital venous plexus according to the sampling time points. About 0.2 to 0.3 mL of blood was collected at each time point and transferred to an anticoagulant EP tube (containing 4 μL of EDTA-K2, 375 mg/mL). The tube was gently inverted three times and stored in an ice box (not exceeding 30 minutes). After centrifugation at 3500×g for 10 minutes at 4° C., the supernatant was transferred to a labeled EP tube. Hemolysis was observed and recorded, and the sample was sent to bioassay for testing. If the sample could not be analyzed the same day, the sample was stored at −80° C. until further testing (be careful not to perform multiple freezing/thawing processes). […]

Series [2] in a line: Liver microsome half-life assay, monkey. The format is in vitro ADME. As to conditions: liver microsomes, 1 mg/mL liver microsomal protein, 37° C., read-out: Liver microsome T½ (min) Monkey. The protocol: (§1) The in vitro metabolic stability of the compounds of the present disclosure was determined using warm incubation method of liver microsomes in various species. A proper amount of test compound was added to the liver microsomal reaction system (1 mg/mL liver microsomal protein, 25 U/mL glucose-6-phosphate dehydrogenase, 1 mM NADP, 6 mM D-glucose 6-phosphate, 5 mM MgCl2), and the reaction was started by warm incubation in a water bath at 37° C., then 100 μL of the reaction mixture at each time point was added to a centrifuge tube containing 400 μL of internal standard working solution precooled at 0° C. (containing a solution of 200 ng/mL dexamethasone, diclofenac, tolbutamide, and labetalol in acetonitrile), then the reaction was terminated, centrifuged at 4° C. and 10,000 g for 10 min, and the supernatant was taken into LC-MS for analysis and detection to obtain in vitro metabolic half-lives of the test compounds in liver microsomes of various species.

Series [3] in a line: Liver microsome half-life assay, rat. The format is in vitro ADME. As to conditions: liver microsomes, 1 mg/mL liver microsomal protein, 37° C., read-out: Liver microsome T½ (min) Rat. As for the experimental part:
as §1

The mark [4] stands for this setting: analyte compound 1-6, mean value.

With `O=C(c1ccc(F)cc1C(F)(F)F)c1cnc2n1CCN(c1cn[nH]c(=O)c1Cl)C2` [Compound 1-6, 4-chloro-5-(3-(4-fluoro-2-(trifluoromethyl)benzoyl)-5,6-dihydroimidazo[1,2-a]pyrazin-7(8H)-yl)pyridazin-3(2H)-one], in series [1] (analyte compound 1-6, animal 4), the area under the curve AUC(0-inf) is 14500 ng·h/mL, the AUC(0-t) amounted to 13500 ng·h/mL, the peak level (Cmax) was 1210 ng/mL and the MRT last amounted to 8.03 h. In addition, in series [1] (analyte compound 1-6, animal 4), the half-life is 5.95 h and the time of peak concentration (Tmax) turned out to be 4 h. Further, in series [1] (analyte compound 1-6, animal 5), the AUC(0-inf) was found to be 11500 ng·h/mL, the AUC(0-t) is 11200 ng·h/mL, the Cmax amounted to 1290 ng/mL and the MRT last was found to be 6.38 h. In series [1] (analyte compound 1-6, animal 5), the half-life was 4.09 h. In series [1] (analyte compound 1-6, animal 6), this compound came in with an AUC(0-inf) of 27500 ng·h/mL, an AUC(0-t) of 18200 ng·h/mL, a Cmax of 1150 ng/mL and a mean residence time (MRT last) of 10 h. Further, the half-life in series [1] (analyte compound 1-6, animal 6) was 14.5 h. In series [1] (setting [4]), this compound came in with an area under the curve AUC(0-inf) of 17800 ng·h/mL, an AUC(0-t) of 14300 ng·h/mL, a Cmax of 1220 ng/mL and an MRT last of 8.15 h. The compound also showed a half-life in series [1] (setting [4]) of 5.02 h. The half-life in series [2] is 247 min. Moreover, the half-life in series [3] is 174 min.
